For eleven compounds, IC50 results are on record in US9382222B2, “Benzyl sulfonamide derivatives as RORc modulators” (Genentech, Inc., priority 2012, dated 2016).

The target in this experiment is T1, RORc ligand binding domain (Homo sapiens, UniProt P51449).
T1 construct: host or cells: E. coli
T1 sequence (P51449 269-508 limits assumed): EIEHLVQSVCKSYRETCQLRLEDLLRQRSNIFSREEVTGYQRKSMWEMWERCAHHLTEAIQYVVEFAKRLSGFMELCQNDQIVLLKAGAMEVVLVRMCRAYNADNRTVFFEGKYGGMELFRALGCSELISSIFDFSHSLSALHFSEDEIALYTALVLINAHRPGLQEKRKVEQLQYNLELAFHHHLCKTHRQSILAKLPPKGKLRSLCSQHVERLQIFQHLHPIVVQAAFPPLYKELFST
Kind of experiment: In Vitro RORc Ligand Binding Assay. The note with it: displacement of 25-[3H]hydroxycholesterol (6 nM), 0.6 ug/mL RORc receptor, 3 h at 25° C. On the procedure: In Vitro RORc Ligand Binding Assay This assay was used to determine a compound's potency in inhibiting activity of RORc by determining, Kiapp, IC50, or percent inhibition values. […] On day of the assay, 100 uL of 0.05% CHAPS (in deionized H2O) was added to all wells of the GFB Unifilter plate and allowed soak for 1 h. A wash buffer of 50 mM HEPES (pH 7.4), 150 mM NaCl, and 5 mM MgCl2 was prepared to wash the filter plate. To prepare an assay buffer, BSA was added to the wash buffer to reach 0.01% and DTT was added to reach 1 mM. […] The 20× compound stocks were diluted in DMSO with Assay Buffer 4-fold to reach 5× the final test concentration in 25% DMSO (10 uL compound+30 uL Assay Buffer). Solutions were mixed by aspiration several times with a pipette set on 50 uL volume. For the assay, 10 uL of 5× compound stock solutions in 25% DMSO were added to the assay plate in duplicate. For two point screening, 10 mM stock compound solutions were diluted in DMSO to obtain 200 uM (20× the high test concentration) and then diluted 10-fold further to reach 20 uM (20× the low test concentration). The 20× stocks were diluted 4-fold with Assay Buffer (10 uL compound+30 uL Assay Buffer) to reach 5× the test concentrations (50 uM and 5 uM) and 10 uL were added to two assay plates for the duplicate wells. […] Add 20 uL to all wells to reach 6 nM final concentration in the assay. […] Stock receptor solution was diluted in assay buffer to obtain 1.5 ug/mL in Assay Buffer. 20 uL was added to all wells. For No Receptor samples, 20 uL Assay Buffer was substituted for receptor solution. […] Following addition to the wells, the plates were incubated 3 h at 25° C. Using a Packard Filtermate Harvester, the filter plate were washed 4 times following transfer of the incubated samples. Plates were dry-filtered completely (2 h at 50° C. or overnight at room temperature). 50 uL Microscint 0 was added to all wells and read on Topcount protocol Inverted. […] For NSB wells, 1 uM 25-hydroxycholesterol was also present.
In general, IC50 refers to the midpoint of a concentration-inhibition curve. A low value points to greater potency in that assay. In turn, `CC(C)CN(c1cccc(Cl)c1)S(=O)(=O)c1ccc(N[C@H]2CCCN(S(C)(=O)=O)C2)cc1` [Compound 45, N-(3-Chloro-phenyl)-N-isobutyl-4-((S)-1-methanesulfonyl-piperidin-3-ylamino)-benzenesulfonamide] displayed a 50% inhibitory concentration (IC50) of 271 nM.

`CC(C)CN(c1cccc(Cl)c1)S(=O)(=O)c1ccc(NC2CCN(S(C)(=O)=O)CC2)cc1` [Compound 32, N-(3-Chloro-phenyl)-N-isobutyl-4-(1-methanesulfonyl-piperidin-4-ylamino)-benzenesulfonamide]: the IC50 stood at 7 nM.

As to `CC(C)CN(c1cccc(Cl)c1)S(=O)(=O)c1ccc(O[C@H]2CCCN(S(C)(=O)=O)C2)cc1` [Compound 43, N-(3-Chloro-phenyl)-N-isobutyl-4-((S)-1-methanesulfonyl-piperidin-3-yloxy)-benzenesulfonamide], the concentration for half-maximal inhibition (IC50) is 281 nM.

Take `CC(C)CN(c1cccc(Cl)c1)S(=O)(=O)c1cccc(N2CCN(S(C)(=O)=O)CC2)c1` [Compound 26, N-(3-Chloro-phenyl)-N-isobutyl-3-(4-methanesulfonyl-piperazin-1-yl)-benzenesulfonamide]: the concentration for half-maximal inhibition (IC50) is 414 nM.

Turning to `CC(C)CN(c1ccccc1Cl)S(=O)(=O)c1ccc(N2CCN(S(=O)(=O)N(C)C)CC2)cc1` [Compound 20, 4-{4-[(2-Chloro-phenyl)-isobutyl-sulfamoyl]-phenyl}-piperazine-1-sulfonic acid dimethylamide], the IC50 amounted to 81 nM.

With `CN(C)S(=O)(=O)N1CCN(c2ccc(S(=O)(=O)N(Cc3ccccc3C(F)(F)F)CC(F)(F)F)cc2)CC1` [Compound 79, 4-{4-[(2,2,2-Trifluoro-ethyl)-(2-trifluoromethyl-benzyl)-sulfamoyl]-phenyl}-piperazine-1-sulfonic acid dimethylamide], the IC50 was 55 nM.

For `CS(=O)(=O)N1CCC(Oc2ccc(S(=O)(=O)N(c3cccc(F)c3)C3CCC3)cc2)CC1` [Compound 4, N-Cyclobutyl-N-(3-fluoro-phenyl)-4-(1-methanesulfonyl-piperidin-4-yloxy)-benzenesulfonamide], the IC50 amounted to 29 nM.

`CC(=O)N1CCC(Nc2ccc(S(=O)(=O)N(CC(C)C)c3cccc(Cl)c3)cc2)CC1` [Compound 31, 4-(1-Acetyl-piperidin-4-ylamino)-N-(3-chloro-phenyl)-N-isobutyl-benzenesulfonamide] showed an IC50 of 258 nM.

With `COc1ccc(CN(CC(C)C)S(=O)(=O)c2ccc(N3CCN(S(C)(=O)=O)CC3)cc2)cc1` [Compound 66, N-Isobutyl-4-(4-methanesulfonyl-piperazin-1-yl)-N-(4-methoxy-benzyl)-benzenesulfonamide], the IC50 worked out at 79 nM.

`CC(C)CN(c1ccc(F)cc1)S(=O)(=O)c1ccc(C(=O)NC2CCN(S(C)(=O)=O)CC2)cc1` [Compound 12, 4-[(4-Fluoro-phenyl)-isobutyl-sulfamoyl]-N-(1-methanesulfonyl-piperidin-4-yl)-benzamide] registered an IC50 of 6100 nM.

The compound `CC(C)CN(Cc1ccc(Cl)cc1)S(=O)(=O)c1ccc(NC2CCN(S(C)(=O)=O)CC2)cc1` [Compound 91, N-(4-Chloro-benzyl)-N-isobutyl-4-(1-methanesulfonyl-piperidin-4-ylamino)-benzenesulfonamide] registered an IC50 of 10 nM.
